In article PMC11889159 (Scientific Reports, 2025):
Values joined by “and” are separate entries in the source; they are usually repeats but may differ in a detail not shown here. Equal entries are not always repeated. Where two headings read alike, the source gives them in different places.

Key:
[1] = molecular target: T1, bovine serum albumin (BSA) (Bos taurus, UniProt P02769); test: biochemical
Excerpt: The inner filter effect (IFE) arises when high analyte concentrations (e.g., fluorophores, ligands, or biomolecules) attenuate excitation light or absorb emitted photons, effectively reducing the optical path length and consequently causing depressed fluorescence readings. To mitigate this phenomenon in our experimental system, we strategically optimized sample concentrations through preliminary calibration studies.
Fluorescence quenching mechanisms can be categorized into static, dynamic, and combined quenching. […] Combined quenching involves both mechanisms, where the fluorophore collides with and forms a stable complex with the quencher. These processes can be described by the Stern-Volmer equation[49]: [drawing 1]
Where F0 and F are the fluorescence intensities in the absence and presence of the quencher, respectively; KSV is the Stern-Volmer quenching constant; [Q] is the quencher concentration; Kq is the bimolecular quenching constant; and τ0 is the fluorescence lifetime in the absence of the quencher (6.3 × 10^− 9 s)[50]. […] (unit: mol/L), and the Y-axis represents the fluorescence intensity ratio F0/F. The data points represent the experimentally measured F0/F values, while the solid line is the linear fit. […] The slope obtained from the linear fit according to the Stern-Volmer equation represents the quenching constant (KSV).
The binding constant (Kb) is calculated using the following formula: […]
Where Kb is the binding constant, n is the number of binding sites per BSA molecule, F0 and F are the fluorescence intensities without and with the quencher, respectively, and [Q] is the quencher concentration. Linear regression is used to fit the data, resulting in a straight line whose slope indicates n (the number of binding sites), and the intercept gives logKb.
Where R is 8.314 J·mol^-1·K^-1, T is 298 K (273 + 25 °C), and Kb is the calculated binding constant.
Fluorescence spectra were acquired using a Hitachi F-7100 fluorescence spectrophotometer equipped with a 150 W xenon lamp and 10 mm quartz cuvette. The instrument parameters were maintained at excitation and emission bandwidths of 10 nm, with a scanning speed of 1200 nm·min^− 1 and PMT voltage of 400 V throughout the experiments.

[2] = molecular target: T1, bovine serum albumin (BSA); test: biochemical; details: logKb
[3] = molecular target: T1, bovine serum albumin (BSA)
Procedure: UV absorption measurement is a simple yet effective technique for examining structural changes and complex formation. […] Variations in the absorbance near 280 nm signify interactions with small molecule drugs.
Absorption spectra were recorded using a UV-vis spectrophotometer (T6 New Century) over the wavelength range of 200–400 nm.

[4] = molecular target: T1, bovine serum albumin (BSA); details: for λex/λem: pH 7.4
Excerpt: Three-dimensional fluorescence spectroscopy, or excitation-emission matrix (EEM) spectroscopy, offers distinct advantages and broad applications for analyzing interactions between small molecules and BSA[55].
The excitation wavelength was systematically scanned from 220 to 350 nm with 5 nm increments, while the emission spectra were simultaneously recorded across the 220–500 nm range at a scanning speed of 12,000 nm min^− 1. The excitation and emission slit widths were maintained at 10 nm throughout the measurements to ensure consistent spectral resolution.

[5] = molecular target: T1, bovine serum albumin (BSA); details: for τave (average fluorescence lifetime): free BSA 3.72 ns
Excerpt: In general, the fluorescence lifetime measurement is the most definitive method to distinguish between dynamic and static quenching.

[6] = molecular target: T1, bovine serum albumin (BSA); details: experimental ΔG versus docking ΔG at Site I
Procedure: The three-dimensional structure of BSA was obtained from the RCSB Protein Data Bank (PDB) database (https://www.rcsb.org/) (PDB ID: 4f5s). […] Open Babel 3.1.1 software was utilized to convert the sdf format files from the PubChem database to pdb format. […] Additionally, the molecular visualization was conducted using Pymol version 2.6.0a0 for 3D visualization and LigPlot + version 2.2.8 for 2D visualization.

[7] = set-up: method as in none printed; details: prolonged circulation; species and source not given; cited from earlier work
[8] = molecular target: T1, bovine serum albumin (BSA); details: van't Hoff plot, 293, 298 and 310 K, pH 7.4
[9] = molecular target: T1, bovine serum albumin (BSA); test: biochemical; details: LogKb, pH 7.4
[10] = molecular target: T1, bovine serum albumin (BSA); test: Job's method, stoichiometry of inclusion complexation with BSA; type: binding; details: [BSA] + [TPT] = 2.0 × 10^-6 mol/L, λex 295 nm
[11] = Site marker: Blank (no marker), BSA 1.0 × 10^-6 mol/L
[12] = Site marker: Ibuprofen 2 × 10^-6 mol/L, BSA 1.0 × 10^-6 mol/L
[13] = Site marker: Warfarin 2 × 10^-6 mol/L, BSA 1.0 × 10^-6 mol/L
[14] = BSA 1.0 × 10^-6 mol/L, drug 5.0 × 10^-6 mol/L
[15] = BSA 1.0 × 10^-6 mol/L, drug 5.0 × 10^-6 mol/L, phosphate buffer, 298.15 K
[16] = BSA 1 × 10^-6 mol/L, drug 5 × 10^-6 mol/L, λex 295 nm, λem 350 nm
[17] = BSA 1 × 10^-6 mol/L, drug 5 × 10^-6 mol/L
[18] = BSA 2 × 10^-6 mol/L, drug 0–33 × 10^-6 mol/L, pH 7.4, 298.15 K
[19] = BSA 2 × 10^-6 mol/L, pH 7.4, 298.15 K
[20] = BSA 2 × 10^-6 mol/L, phosphate buffer pH 7.40, λex 295 nm
[21] = slope of double logarithmic plot, 298 K
[22] = drug:BSA 5:1, Peak 1, BSA 3 × 10^-6 mol/L
[23] = drug:BSA 5:1, Peak 1, BSA alone 9750
[24] = drug:BSA 5:1, Peak 1, blue shift
[25] = drug:BSA 5:1, Peak 2, BSA 3 × 10^-6 mol/L
[26] = drug:BSA 5:1, Peak 2, BSA alone 7937
[27] = drug:BSA 5:1, Peak 2, blue shift
[28] = drug:BSA 10:1, Peak 1, BSA 3 × 10^-6 mol/L
[29] = drug:BSA 10:1, Peak 1, BSA alone 9750
[30] = drug:BSA 10:1, Peak 1, blue shift
[31] = drug:BSA 10:1, Peak 2, BSA 3 × 10^-6 mol/L
[32] = drug:BSA 10:1, Peak 2, BSA alone 7937
[33] = drug:BSA 10:1, Peak 2, blue shift

T1 sequence (P02769 25-607): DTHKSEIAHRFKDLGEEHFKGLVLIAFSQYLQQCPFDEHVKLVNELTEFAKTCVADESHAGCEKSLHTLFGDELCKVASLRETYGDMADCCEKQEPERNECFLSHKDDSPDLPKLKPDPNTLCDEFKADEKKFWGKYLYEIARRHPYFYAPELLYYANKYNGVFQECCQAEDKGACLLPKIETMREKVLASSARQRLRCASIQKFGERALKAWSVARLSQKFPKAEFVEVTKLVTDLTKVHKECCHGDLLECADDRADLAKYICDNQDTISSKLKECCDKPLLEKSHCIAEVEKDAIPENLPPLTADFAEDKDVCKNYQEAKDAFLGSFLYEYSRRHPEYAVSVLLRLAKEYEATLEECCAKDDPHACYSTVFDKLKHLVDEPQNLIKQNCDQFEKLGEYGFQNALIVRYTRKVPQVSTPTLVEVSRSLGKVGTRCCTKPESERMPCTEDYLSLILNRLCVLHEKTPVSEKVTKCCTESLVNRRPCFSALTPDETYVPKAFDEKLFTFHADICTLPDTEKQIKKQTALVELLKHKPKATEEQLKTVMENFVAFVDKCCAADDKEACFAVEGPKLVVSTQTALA

Compound | Kd [1] [µM] | Kd [2, 11] [µM] | Kd [2, 12] [µM] | Kd [2, 13] [µM] | blue shift of the UV absorption peak of BSA at 280 nm [3, 14] [nm] | Changes in absorption peaks (280 nm) [3, 15] | A1 (decay amplitude) [5, 16] | A2 (decay amplitude) [5, 16] | τ1 [5, 16] [ns] | τ2 [5, 16] [ns] | τave (average fluorescence lifetime) [5, 17] [ns] | Stern–Volmer equation Slope [1, 18] | Ksv (Stern-Volmer quenching constant) [1, 19] | blue shift of the maximum fluorescence emission peak of BSA (Δλmax) [1, 20] [nm] | Kq (bimolecular quenching constant) ([1]; Kq = KSV/τ0, τ0 6.3 × 10^-9 s) | n (number of binding sites per BSA molecule) [1, 21] | λex/λem [4, 22] | Intensity [4, 23] | Emission maximum shift [4, 24] [nm] | λex/λem [4, 25] | also measured
CC[C@@]1(O)C(=O)OCc2c1cc1n(c2=O)Cc2cc3cc(O)ccc3nc2-1 [10-HCPT, 10-Hydroxycamptothecin] | 121 | 120 | 44.7 | 1510 | 2 | 280 nm→278 nm | 0.8806 | 0.1858 | 2.239 | 7.483 | 4.41 |  |  |  |  |  |  |  |  |  | Kq (bimolecular quenching constant) [1]: 23.79 ×10^11 L·mol^− 1·s^− 1; n (number of binding sites per BSA molecule) [1]: 0.8809; Ksv (Stern-Volmer quenching constant) ([1]; pH 7.4): 14.99 ×10^3 L·mol^− 1; Stern–Volmer equation Slope ([1]; pH 7.4): 14986.88 ± 1787.60; blue shift of the maximum fluorescence emission peak of BSA (Δλmax) ([1]; pH 7.4): 11.8 nm; Emission maximum shift [4]: 15 nm; λex/λem [4]: 225/325 and 275/325; ΔΔG between experimental and theoretical binding energy [6]: ≈ 10.51 kJ·mol^−1
CC[C@@]1(O)C(=O)OCc2c1cc1n(c2=O)Cc2cc3ccccc3nc2-1 [CPT, Camptothecin] | 236 | 234 | 759 | 5500 | 3 | 280 nm→277 nm | 0.7855 | 0.2263 | 1.889 | 5.78 | 3.71 | 18536.73 ± 2298.23 | 18.53 ×10^3 L·mol^− 1 | 1.4 | 29.41 ×10^11 L·mol^− 1·s^− 1 | 0.8287 | 275/340 | 3382 | 0 | 225/340 | Reduction percent (fluorescence intensity) ([4]; drug:BSA 5:1, Peak 1): 65%; Reduction percent (fluorescence intensity) ([4]; drug:BSA 5:1, Peak 2): 30%; Intensity [4, 26]: 5518; Emission maximum shift [4, 27]: 0 nm; Reduction percent (fluorescence intensity) ([4]; drug:BSA 10:1, Peak 1): 67%; λex/λem [4, 28]: 275/340; Intensity [4, 29]: 3179; Emission maximum shift [4, 30]: 0 nm; Reduction percent (fluorescence intensity) ([4]; drug:BSA 10:1, Peak 2): 33%; λex/λem [4, 31]: 225/340; Intensity [4, 32]: 5323; Emission maximum shift [4, 33]: 0 nm
CCc1c2c(nc3ccc(OC(=O)N4CCC(N5CCCCC5)CC4)cc13)-c1cc3c(c(=O)n1C2)COC(=O)[C@]3(O)CC [CPT-11, Irinotecan] |  |  |  |  |  |  |  |  |  |  |  |  |  |  |  |  |  |  |  |  | Changes in absorption peaks (280 nm) [3]: 280 nm→258 nm; τ2 [5]: 7.79 ns
CC[C@@]1(O)C(=O)OCc2c1cc1n(c2=O)Cc2cc3c(CN(C)C)c(O)ccc3nc2-1 [TPT, Topotecan] | 11 |  |  |  | 12 | 280 nm→268 nm | 0.8636 | 0.1543 | 1.699 | 7.6602 | 4.36 | 29101.32 ± 782.38 | 29.10 ×10^3 L·mol^− 1 | 1.0 | 46.19 ×10^11 L·mol^− 1·s^− 1 | 1.1165 | 275/340 | 8453 | 0 | 225/340 | KSV ([1]; as quoted in the discussion of Table 2): 29.10 × 10^2 M^− 1; circulation t1/2 [7]: ≈ 8 h; Kd [2]: 12.6 µM and 6.61 µM and 12 µM; ΔS [8]: 0.066 kJ·mol^− 1·K^− 1; Kd ([9]; 293 K): 3.98 µM; Kd ([9]; 298 K): 4.37 µM; Kd ([9]; 310 K): 5.13 µM; molar fraction at maximum fluorescence intensity change (Job's plot) [10]: 0.5; Intensity [4, 26]: 5380; Emission maximum shift [4, 27]: 0 nm; λex/λem [4, 28]: 275/325; Intensity [4, 29]: 4956; Emission maximum shift [4, 30]: 15 nm; λex/λem [4, 31]: 225/320; Intensity [4, 32]: 2777; Emission maximum shift [4, 33]: 20 nm
